Results from US20220105192A1, “COMPOSITION, METHOD AND USE THEREOF” (RYBOQUIN COMPANY LTD, priority 2019, published 2022).

How the values were obtained:
[1] = test system: ITCH mRNA; test: ITCH mRNA knockdown by qPCR after LipofectAMINE 2000 transfection, Kelly cells; format: cell-based
Method: (§1) Transfection with LipofectAMINE 2000: one day before transfection, cells were plated at 8×10^4 cells per well for 24-well plate or 1.5×10^5 cells per well for 6-well plate in culture medium. On the day of transfection, LipofectAMINE 2000 (Thermal Fisher) or ITCH/Irrelevant siRNA (Eurogentec) was pre-diluted in OptiMEM (Thermal Fisher) with various concentrations and mixed to form complexes at room temperature (RT) for 25 min before adding to cells. mRNAs or protein lysates were collected 72 hours after transfection for further analysis.
(§2) Real-time PCR: cDNA from each mRNA sample was synthesized using superscript III first strand synthesis kit (Thermal Fisher). To determine the ITCH expression, real time PCR was performed using SYBR-green qPCR kit (Eurogentec), using beta-actin or SDHA (sequence details as above) as endogenous control. The qPCR was run using either StepOne plus qPCR machine (Thermal Fisher) or CFX96 qPCR system (Bio-Rad). Results were analysed using their corresponding software.
(§3) To determine ITCH silencing in neuroblastoma cells in vitro, neuroblastoma cells were transfected with ITCH siRNA, using LipofectAMINE 2000 as the transfection reagent. Cells were transfected with either, a) ITCH siRNA (6.25 nM to 100 nM) using 2 μl/well LipofectAMINE 2000 or b) Different amounts of LipofectAMINE2000 (0.5 μl/well, 1 μl/well and 2 μl/well) with 100 nM ITCH siRNA for 4 hours in OptiMEM, and then change into complete medium for a further 72 hours.
(§4) The ITCH mRNA levels were determined by qPCR, and cells transfected with irrelevant siRNA were used as the control.

[2] = test system: ITCH mRNA; test: ITCH mRNA knockdown by qPCR after LipofectAMINE 2000 transfection, BE2 cells; format: cell-based
Method: as §1, §2, §3, §4

[3] = test system: Itch protein; test: Western blot of Itch protein after siRNA transfection, Kelly cells; format: cell-based
Method: as §1
[…] 100 μl of lysis buffer was added to each well of the 6-well plate, and left on ice for 10 minutes. Samples were collected and boiled for 3 minutes and then centrifuged at 14,000 g for 10 minutes at 4° C. The supernatants were stored at −80° C. until needed. 30 μl/well of each sample were loaded onto NuPAGE Novex 10% bis-Tris Gel, and run at a constant voltage of 150V for 1 hour, before being transferred to a nitrocellulose membrane at 300 mA for 2 hours. The membrane was then blocked with Odyssey block solution (LI-COR Biosciences) for 60 min, incubated by primary antibodies of mouse anti-ITCH antibody (1:2000, BD) or rabbit anti-TP73 (1:1000, Generon), and mouse anti-beta actin (1:5000, Sigma) overnight at 4° C. […]

[4] = test system: Itch protein; test: Western blot of Itch protein after siRNA transfection, BE2 cells; format: cell-based; settings: 72 hours after transfection, in comparison to irrelevant siRNA treated cells
Method: as §1
Western blot: 72 hours after transfection, protein was extracted in RIPA (Radio-Immunoprecipitation Assay) lysis buffer (Sigma) containing a complete protease inhibitor cocktail (1:100, Roche). 100 μl of lysis buffer was added to each well of the 6-well plate, and left on ice for 10 minutes. Samples were collected and boiled for 3 minutes and then centrifuged at 14,000 g for 10 minutes at 4° C. The supernatants were stored at −80° C. until needed. 30 μl/well of each sample were loaded onto NuPAGE Novex 10% bis-Tris Gel, and run at a constant voltage of 150V for 1 hour, before being transferred to a nitrocellulose membrane at 300 mA for 2 hours. […]

[5] = test system: TP73; test: Western blot of TP73 after ITCH siRNA transfection, Kelly cells; format: cell-based; settings: LipofectAMINE2000, samples at 1, 2, 3, 6 days and D6+3, western blot normalized to β-actin
Method: […] 100 μl of lysis buffer was added to each well of the 6-well plate, and left on ice for 10 minutes. Samples were collected and boiled for 3 minutes and then centrifuged at 14,000 g for 10 minutes at 4° C. The supernatants were stored at −80° C. until needed. 30 μl/well of each sample were loaded onto NuPAGE Novex 10% bis-Tris Gel, and run at a constant voltage of 150V for 1 hour, before being transferred to a nitrocellulose membrane at 300 mA for 2 hours. The membrane was then blocked with Odyssey block solution (LI-COR Biosciences) for 60 min, incubated by primary antibodies of mouse anti-ITCH antibody (1:2000, BD) or rabbit anti-TP73 (1:1000, Generon), and mouse anti-beta actin (1:5000, Sigma) overnight at 4° C. After washing with PBS (phosphate-buffered saline) containing 1% Tween 20 (PBST) for 15 min×3 times at room temperature, the membrane was then incubated with IRDye 680 RD goat anti-rabbit and IRDye 800 CW goat anti-mouse 2nd antibodies (1:15000, LI-COR Biosciences) for 1 hour at RT. The image of the blotted membrane was acquired by Odyssey Clx infrared imaging system (LI-COR Biosciences) using image studio software.
Kelly cells were transfected with ITCH siRNA or irrelevant siRNA in 6-well plates using LipofectAMINE2000. The protein samples were collected 1 day, 2 days, 3 days and 6 days after transfection. […]

[6] = test system: Kelly cells; test: SubG1 analysis (apoptosis) of transfected Kelly cells after 4 Gy irradiation; format: cell-based; settings: 4 Gy irradiation three days after transfection, analysed one day after irradiation
Method: SubG1 analysis: to examine the effects of ITCH silencing on the apoptosis of neuroblastoma cells upon irradiation, Kelly cells were firstly transfected with ITCH siRNA as described above, using irrelevant siRNA as control. Cells were exposed to 4 Gy irradiation three days after transfection. 24 hours after irradiation, cells were trypsinized and centrifuged at 2000 rpm, for 5 min. Pre-cold 70% ethanol was then added dropwise to cell pellet, and the cells were fixed at 4° C. for 30 min before centrifuge again and the cell pellet washed with citric buffer twice before adding 50 μl RNase followed by 50 μg/ml PI (propidium iodide) for 5 min. The cells were then pelleted again at 2000 rpm for 5 min, and re-suspended in 0.5 ml PBS for FACS (fluorescent associated cell sorting) analysis. The cell cycle profile was acquired using FACS calibur machine and the percentage of cells in the SubG1 region was calculated using Flowjo software.
Kelly cells were transfected with ITCH and irrelevant siRNA, respectively. Three days later, cells were subjected to 4 Gy irradiation. The subG1 population was analysed one day after the irradiation. […] This difference was statistically significant between the 2 groups (p<0.001, Mann-Whitney test).

[7] = test system: ITCH mRNA; test: In vivo silencing of ITCH in neuroblastoma (Kelly) xenograft tumours, real time RT-PCR; parameters: species or system mouse; settings: for Differences in % (ITCH SiRNA vs Irre SiRNA), relative ITCH expression <0.8 / Differences in % (ITCH SiRNA vs Irre SiRNA), relative ITCH expression <1 / % of samples with relative ITCH expression <0.8 / % of samples with relative ITCH expression <1 / Number of samples with relative ITCH expression <0.8 / Number of samples with relative ITCH expression <1: 24 h after injection; for % of samples with relative ITCH expression <0.8 / % of samples with relative ITCH expression <1 / Number of samples with relative ITCH expression <0.8 / Number of samples with relative ITCH expression <1: n number 24; for more samples expressing lower level of ITCH (relative expression <0.8) in treated group than in control group: 48 h after delivery; for ITCH silencing: 48 hours after delivery, vs irrelevant siRNA group; for Relative expression of ITCH/SDHA (mean ± SEM) / Relative expression of ITCH/β-actin (mean ± SEM): xenograft tumours
Method: Establishment of the xenograft neuroblastoma model and in vivo transfection of ITCH siRNA with nanoparticles: 6-8 week old NSG-SCID female mice were ordered from Charles River laboratories. All procedures were approved by UCL animal care policies and were carried out under Home Office Licenses issued in accordance with the United Kingdom Animals (Scientific Procedures) Act 1986 (UK). The mice were acclimatized for 1-2 weeks before engrafting the neuroblastoma cells. On the day of injection, Kelly cells were trypsinized and re-suspended in medium at a density of 3×10^6 cells/100 μl. 100 μl cell suspension was mixed with equal volume of Matrigel (BD biosciences) on ice and immediately injected subcutaneously into the left or right upper thigh of the mouse. The body weight and the tumour size/volume of each mouse were monitored from D4 after engraftment. The in vivo administration of the ITCH siRNA nanoparticles was performed on mouse once its tumour grew bigger than 5mm at both dimensions. The nanoparticle formulation for in vivo study was also prepared at the 1:4:1 ratio, using cationic lipid AT-1, which contains 1% PEG and the peptide used was ME27. 1 mg siRNA/kg of nanoparticles was injected intravenously into each mouse. The tumour was harvested either 24 hours or 48 hours after administration, and processed for qPCR analysis.
Real time RT-PCR analysis of tumour samples: each tumour was divided into 4 parts and mRNA was extracted respectively for real time RT-PCR analysis. iTaq Universal SYBR Green One-Step Kit was used in this assay. For normalization, 2 separate housekeeping genes, beta-actin and SDHA (Fisher M, 2005) were included. As there were in total 104 samples to test, it was not possible to fit all samples in a single 96 well testing plate. Therefore, sample 05 c was chosen, from an untreated tumour sample as a common control. This sample was included in every plate that was run and all the data from each plate were calculated relative to this sample (the ddCT value of each sample was calculated by subtracting the deICT value of sample 05 c).

[8] = 6.25 nM siRNA, 2 μl/well LipofectAMINE 2000, qPCR, control irrelevant siRNA
[9] = 12.5 nM siRNA, 2 μl/well LipofectAMINE 2000, qPCR, control irrelevant siRNA
[10] = 25 nM siRNA, 2 μl/well LipofectAMINE 2000, qPCR, control irrelevant siRNA
[11] = 50 nM siRNA, 2 μl/well LipofectAMINE 2000, qPCR, control irrelevant siRNA
[12] = 100 nM siRNA, 2 μl/well LipofectAMINE 2000, qPCR, control irrelevant siRNA
[13] = 24 hours after i.v. 1 mg siRNA/kg nanoparticles (AT-1, ME27)
[14] = 48 hours after i.v. 1 mg siRNA/kg nanoparticles (AT-1, ME27)

## ITCH siRNA: siRNA, sense strand 5′-GCUGUUGUUUGCCAUAGAA55-3′ (SEQ ID NO 003), antisense strand 5′-UUCUAUGGCAAACAACAGC55-3′ (SEQ ID NO 004) (Eurogentec) (listed as RNA, chemistry not given here)
[1]; [8]
  ITCH knockdown: 64.7%
[1]; [9]
  ITCH knockdown: 77.8%
[1]; [10]
  ITCH knockdown: 73.5%
[1]; [11]
  ITCH knockdown: 89%
[1]; 100nM SiRNA, 0.5 μl/well LipofectAMINE 2000
  ITCH knockdown: 85%
[1]; 100nM SiRNA, 1 μl/well LipofectAMINE 2000
  ITCH knockdown: 83%
[1]; 100nM SiRNA, 2 μl/well LipofectAMINE 2000 (LipofectAMINE amount series)
  ITCH knockdown: 78.8%
[1]; [12]
  ITCH knockdown: 78%
[2]; [8]
  ITCH knockdown: -39%
[2]; [9]
  ITCH knockdown: 54%
[2]; [10]
  ITCH knockdown: 48.7%
[2]; [11]
  ITCH knockdown: 71.8%
[2]; 100 nM siRNA, 0.5 μl/well LipofectAMINE 2000
  ITCH knockdown: 88.7%
[2]; 100 nM siRNA, 1 μl/well LipofectAMINE 2000
  ITCH knockdown: 49%
[2]; 100 nM siRNA, 2 μl/well LipofectAMINE 2000 (LipofectAMINE amount series)
  ITCH knockdown: 34%
[2]; [12]
  ITCH knockdown: 38.2%
[3]; 72 hours after transfection, western blot, in comparison to non-transfected cells
  remaining Itch protein level: 31.6%
[3]; LipofectAMINE2000, 1 day to 6 days after the 1st transfection, vs irrelevant siRNA, normalized to β-actin
  Itch protein level, time course: downregulation of Itch protein was observed
[4]
  changes in Itch protein level: no changes
[5]
  TP73 protein level, time course: upregulation was only detected at day 3 samples and day 6 samples which had been transfected twice
[6]
  percentage of SubG1 (apoptotic) cells: 8.36%
[7]; normalized to SDHA
  Differences in % (ITCH SiRNA vs Irre SiRNA), relative ITCH expression <0.8: 12.5%
  Differences in % (ITCH SiRNA vs Irre SiRNA), relative ITCH expression <1: 4.17%
  % of samples with relative ITCH expression <0.8: 25%
  % of samples with relative ITCH expression <1: 41.67%
  Number of samples with relative ITCH expression <0.8: 6
  Number of samples with relative ITCH expression <1: 10
  more samples expressing lower level of ITCH (relative expression <0.8) in treated group than in control group: 35%
  ITCH silencing: 14.6%
[7]; normalized to β-actin
  Differences in % (ITCH SiRNA vs Irre SiRNA), relative ITCH expression <0.8: −16.67%
  Differences in % (ITCH SiRNA vs Irre SiRNA), relative ITCH expression <1: 8.33%
  % of samples with relative ITCH expression <0.8: 16.67%
  % of samples with relative ITCH expression <1: 45.83%
  Number of samples with relative ITCH expression <0.8: 4
  Number of samples with relative ITCH expression <1: 11
  more samples expressing lower level of ITCH (relative expression <0.8) in treated group than in control group: 27.14%
  ITCH silencing: 19.15%
[7]; neuroblastoma xenograft model, nanoparticles, 48 hours after transfection
  ITCH silencing (summary): 15-20%
[7]; [13]
  Relative expression of ITCH/SDHA (mean ± SEM): 1.18 ± 0.10
  Relative expression of ITCH/β-actin (mean ± SEM): 1.05 ± 0.06
[7]; [14]
  Relative expression of ITCH/SDHA (mean ± SEM): 0.82 ± 0.05
  Relative expression of ITCH/β-actin (mean ± SEM): 0.76 ± 0.05
